The source of these data is patent US8637443B2, “Cleaning compositions and methods comprising a hydrofluoro-olefin or hydrochlorofluoro-olefin solvent” (Honeywell International Inc., priority 2008, dated 2014).

The series in a line: toxicity (comparative statement, no method given). The settings on record: in comparison to CF3CH═CF2 (HFO-1225zc).

Consider `FC=C(F)C(F)(F)F` [HFO-1225yez, 1,1,1,2,3 pentafluoropropene], for which the degree of toxicity entry is listed as “relatively low degree of toxicity”.
